Values of other authors, collected in patent publication US20110111002A1, “TRANSPORT AND DELIVERY OF GLUTATHIONE INTO HUMAN CELLS USING GOLD NANOPARTICLES” (priority 2009, published 2011).

Tests used:
[1] = test system: intracellular glutathione concentration; settings: versus the three component amino acids (precursors)
[2] = humans, injectable
cell type tested = settings: irrespective of the cell type tested

N[C@@H](CCC(=O)N[C@@H](CS)C(=O)NCC(=O)O)C(=O)O [GSH, L-gammaglutamyl-L-cysteinylglycine]
efficiency in raising the intracellular glutathione concentration compared to the precursors [1]: three times more efficient

O=C([O-])CC([S-])C(=O)[O-].[Au+].[Na+].[Na+] (stereo not drawn) [Myochrisine]
tolerance of high concentrations [2]: excellent tolerance

O=C([O-])CC([S-])C(=O)[O-].[Au+].[Na+].[Na+] (stereo not drawn) [Tauredon]
toxicity (cell type tested): comparatively nontoxic
